According to patent US20210255193A1, “LYSINE REACTIVE PROBES AND USES THEREOF” (The Scripps Research Institute, priority 2017, published 2021):

Experiments:
[1] = target: T1, GABARAPL2 Gamma-aminobutyric acid receptor-associated protei (Homo sapiens, UniProt P60520); assay: competitive isoTOP-ABPP; format: binding; settings: for isoTOP-ABPP ratio (R) at liganded lysine P60520_K46 / R value (DMSO/fragment) for probe 1 labeling / isoTOP-ABPP reactivity ratio at lysine P60520_K46: 50 uM, in vitro; for isoTOP-ABPP ratio (R) at liganded lysine P60520_K46: sol, 231; for R value (DMSO/fragment) for probe 1 labeling: P60520_K46; for R value (DMSO/fragment) for probe 1 labeling / isoTOP-ABPP reactivity ratio at lysine P60520_K46: 231 sol
T1 construct: isoTOP-ABPP experiments performed in cell lysates (in vitro); endogenous in cells; host or cells: soluble proteome of human cancer cell lines (MDA-MB-231, Ramos, Jurkat)
T1 sequence (P60520 1-116 limits assumed): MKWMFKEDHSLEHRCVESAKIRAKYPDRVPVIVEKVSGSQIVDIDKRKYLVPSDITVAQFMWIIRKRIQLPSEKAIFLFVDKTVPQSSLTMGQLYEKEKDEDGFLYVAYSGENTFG
Procedure, shortened: (§1)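 Readout: isotopic light/heavy MS1 peak-area ratio (R, DMSO heavy over compound light), median across peptides sharing a modified lysine. Lysate received fragment (activated esters 50 μM, guanidinylating agents 100 μM final) or DMSO, then 0.1 mM STP-alkyne probe for 1 h at ambient temperature.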

RTN4 Reticulon-4 = target: T2, RTN4 Reticulon-4 (Homo sapiens, UniProt Q9NQC3); assay: competitive isoTOP-ABPP; format: binding; settings: for isoTOP-ABPP ratio (R) at liganded lysine Q9NQC3_K1104 / isoTOP-ABPP reactivity ratio at lysine Q9NQC3_K1104 / R value (DMSO/fragment) for probe 1 labeling: 50 uM, in vitro; for isoTOP-ABPP ratio (R) at liganded lysine Q9NQC3_K1104: sol, 231; for isoTOP-ABPP reactivity ratio at lysine Q9NQC3_K1104 / R value (DMSO/fragment) for probe 1 labeling: 231 sol; for R value (DMSO/fragment) for probe 1 labeling: Q9NQC3_K1104
T2 construct: endogenous in cells; host or cells: MDA-MB-231 lysate
T2 sequence (Q9NQC3 1-1192): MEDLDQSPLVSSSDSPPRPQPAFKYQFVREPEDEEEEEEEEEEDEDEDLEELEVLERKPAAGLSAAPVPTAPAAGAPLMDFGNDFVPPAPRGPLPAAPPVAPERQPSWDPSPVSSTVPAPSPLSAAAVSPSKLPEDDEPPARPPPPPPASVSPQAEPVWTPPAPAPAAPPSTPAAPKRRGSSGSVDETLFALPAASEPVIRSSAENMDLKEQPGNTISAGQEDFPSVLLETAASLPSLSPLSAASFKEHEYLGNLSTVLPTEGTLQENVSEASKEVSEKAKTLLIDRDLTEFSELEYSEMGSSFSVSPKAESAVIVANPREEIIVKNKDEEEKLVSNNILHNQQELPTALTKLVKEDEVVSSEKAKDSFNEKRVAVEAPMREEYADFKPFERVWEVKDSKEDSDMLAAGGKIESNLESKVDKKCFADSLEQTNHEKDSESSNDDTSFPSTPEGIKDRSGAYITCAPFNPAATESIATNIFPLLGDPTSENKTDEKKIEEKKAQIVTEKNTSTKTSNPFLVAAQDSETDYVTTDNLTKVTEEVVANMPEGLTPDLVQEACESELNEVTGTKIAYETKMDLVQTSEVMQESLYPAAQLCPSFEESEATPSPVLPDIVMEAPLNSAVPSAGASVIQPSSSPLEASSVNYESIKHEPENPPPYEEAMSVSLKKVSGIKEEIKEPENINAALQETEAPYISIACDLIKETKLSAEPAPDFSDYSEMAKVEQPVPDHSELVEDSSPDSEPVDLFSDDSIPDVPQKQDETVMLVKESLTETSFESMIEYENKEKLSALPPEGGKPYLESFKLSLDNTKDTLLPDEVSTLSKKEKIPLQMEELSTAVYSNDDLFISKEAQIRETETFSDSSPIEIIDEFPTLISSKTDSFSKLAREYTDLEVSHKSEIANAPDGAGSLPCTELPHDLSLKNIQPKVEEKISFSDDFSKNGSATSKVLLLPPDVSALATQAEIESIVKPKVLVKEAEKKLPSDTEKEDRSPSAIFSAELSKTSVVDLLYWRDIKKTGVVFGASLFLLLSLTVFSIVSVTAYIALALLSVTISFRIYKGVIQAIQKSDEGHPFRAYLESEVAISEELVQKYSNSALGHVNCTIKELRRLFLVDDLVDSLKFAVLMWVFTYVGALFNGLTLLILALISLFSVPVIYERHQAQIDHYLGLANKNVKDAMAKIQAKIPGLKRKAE
Procedure, shortened: as §1

For `O=C(Oc1ccc([N+](=O)[O-])cc1[N+](=O)[O-])C(c1ccccc1)(c1ccccc1)c1ccccc1` [fragment 42, 2,4-Dinitrophenyl 2,2,2-triphenylacetate], the “isoTOP-ABPP ratio (R) at liganded lysine P60520_K46” value [1] was 0.9 and the “isoTOP-ABPP ratio (R) at liganded lysine Q9NQC3_K1104” value (RTN4 Reticulon-4) was 1.2.

For `O=C(CCc1coc2cc(F)ccc2c1=O)Oc1c(F)c(F)c(F)c(F)c1F` [fragment 26, Pentafluorophenyl 3-(7-fluoro-4-oxo-4H-chromen-3-yl)propanoate], the “isoTOP-ABPP reactivity ratio at lysine Q9NQC3_K1104” value (RTN4 Reticulon-4) was 5.3.

With `O=C(Oc1ccc([N+](=O)[O-])cc1[N+](=O)[O-])c1ccccc1Nc1cccc(C(F)(F)F)c1` [fragment 40, 2,4-Dinitrophenyl 2-((3-(trifluoromethyl)phenyl)amino)benzoate] the “isoTOP-ABPP ratio (R) at liganded lysine Q9NQC3_K1104” value (RTN4 Reticulon-4) was 2.1.

In the case of `Cn1cc(CC(=O)Oc2c(F)c(F)c(F)c(F)c2F)c2ccccc21` [fragment 22, Pentafluorophenyl 2-(1-methyl-1H-indol-3-yl)acetate], the “R value (DMSO/fragment) for probe 1 labeling” value (from here on “R value (DMSO/fragment)”) [1] is reported as 0.8.

`O=C(Oc1c(F)c(F)c(C(F)(F)F)c(F)c1F)c1cc(C(F)(F)F)cc(C(F)(F)F)c1` [fragment 47, 2,3,5,6-Tetrafluoro-4-(trifluoromethyl)phenyl 3,5-bis(trifluoromethyl)benzoate] was tested, and the “isoTOP-ABPP ratio, lysine P60520_K46” value ([1]; 50 uM_231_sol_in vitro) was 1.0 and the “isoTOP-ABPP ratio, lysine Q9NQC3_K1104” value (RTN4 Reticulon-4; 50 uM_231_sol_in vitro) was 3.8.

For `O=C(CC12CC3CC(CC(C3)C1)C2)Oc1ccc([N+](=O)[O-])cc1[N+](=O)[O-]` [fragment 38, 2,4-Dinitrophenyl 2-(adamantan-1-yl)acetate], the “isoTOP-ABPP ratio (R) at liganded lysine P60520_K46” value [1] was 1.0.

In the case of `O=C(ON1C(=O)CCC1=O)c1cc(C(F)(F)F)cc(C(F)(F)F)c1` [fragment 46, 3,5-Bis(trifluoromethyl)benzoic acid NHS ester], the “isoTOP-ABPP ratio, lysine Q9NQC3_K1104” value (RTN4 Reticulon-4; 50 uM_231_sol_in vitro) is reported as 2.5.

For `NC(=O)c1cc(C(F)(F)F)cc(C(F)(F)F)c1` [fragment 51, reference compound], the “isoTOP-ABPP ratio, lysine P60520_K46” value ([1]; 50 uM_231_sol_in vitro) was 1.0 and the “isoTOP-ABPP ratio, lysine Q9NQC3_K1104” value (RTN4 Reticulon-4; 50 uM_231_sol_in vitro) was 0.7.

`O=C(CCc1cn(-c2ccccc2)nc1-c1ccccc1)Oc1c(F)c(F)c(F)c(F)c1F` [fragment 19, Pentafluorophenyl 3-(1,3-diphenyl-1H-pyrazol-4-yl)propanoate] was tested, and the “R value (DMSO/fragment)” value [1] was 1.2.

With `COc1cc(CCC(=O)Oc2ccc([N+](=O)[O-])cc2[N+](=O)[O-])cc(OC)c1OC` [fragment 33, 2,4-Dinitrophenyl 3-(3,4,5-trimethoxyphenyl)propanoate] the “isoTOP-ABPP reactivity ratio at lysine P60520_K46” value [1] was 1.2 and the “isoTOP-ABPP reactivity ratio at lysine Q9NQC3_K1104” value (RTN4 Reticulon-4) was 4.3.

For `O=C(Oc1ccc([N+](=O)[O-])cc1[N+](=O)[O-])c1cc(C(F)(F)F)cc(C(F)(F)F)c1` [fragment 31, 2,4-Dinitrophenyl 3,5-bis(trifluoromethyl)benzoate], the “isoTOP-ABPP reactivity ratio at lysine P60520_K46” value [1] was 1.2 and the “isoTOP-ABPP reactivity ratio at lysine Q9NQC3_K1104” value (RTN4 Reticulon-4) was 6.1.

With `O=C(CCc1cn(-c2ccccc2)nc1-c1ccccc1)Oc1ccc([N+](=O)[O-])cc1[N+](=O)[O-]` [fragment 29, 2,4-Dinitrophenyl 3-(1,3-diphenyl-1H-pyrazol-4-yl)propanoate] the “isoTOP-ABPP reactivity ratio at lysine P60520_K46” value [1] was 0.9 and the “isoTOP-ABPP reactivity ratio at lysine Q9NQC3_K1104” value (RTN4 Reticulon-4) was 15.6.

For `CC(=O)Oc1ccc([N+](=O)[O-])cc1[N+](=O)[O-]` [fragment 43, 2,4-Dinitrophenyl acetate], the “isoTOP-ABPP ratio (R) at liganded lysine Q9NQC3_K1104” value (RTN4 Reticulon-4) was 1.4.

`O=C(Oc1c(F)c(F)cc(F)c1F)c1cc(C(F)(F)F)cc(C(F)(F)F)c1` [fragment 48, 2,3,5,6-Tetrafluorophenyl 3,5-bis(trifluoromethyl)benzoate] was tested, and the “isoTOP-ABPP ratio, lysine P60520_K46” value ([1]; 50 uM_231_sol_in vitro) was 0.9.

With `CC(C)(C)OC(=O)N=C(NC(=O)OC(C)(C)C)n1cccn1` [fragment 50, reference compound] the “isoTOP-ABPP ratio, lysine P60520_K46” value ([1]; 100 uM_231_sol_in vitro) was 20.0 and the “isoTOP-ABPP ratio, lysine Q9NQC3_K1104” value (RTN4 Reticulon-4; 100 uM_231_sol_in vitro) was 1.4.

For `N#Cc1ccc(C(=O)Oc2ccc([N+](=O)[O-])cc2[N+](=O)[O-])cc1` [fragment 44, 2,4-Dinitrophenyl 4-cyanobenzoate], the “isoTOP-ABPP ratio, lysine P60520_K46” value ([1]; 50 uM_231_sol_in vitro) was 0.9 and the “isoTOP-ABPP ratio, lysine Q9NQC3_K1104” value (RTN4 Reticulon-4; 50 uM_231_sol_in vitro) was 2.6.

In the case of `O=C(Oc1ccc([N+](=O)[O-])cc1[N+](=O)[O-])c1ccc(-c2ccccc2)cc1` [fragment 37, 2,4-Dinitrophenyl [1,1′-biphenyl]-4-carboxylate], the “isoTOP-ABPP ratio (R) at liganded lysine P60520_K46” value [1] is reported as 0.8 and the “isoTOP-ABPP ratio (R) at liganded lysine Q9NQC3_K1104” value (RTN4 Reticulon-4) is reported as 3.4.

In the case of `O=C(CCc1ccc2c(c1)OCO2)Oc1ccc([N+](=O)[O-])cc1[N+](=O)[O-]` [fragment 45, 2,4-Dinitrophenyl 3-(benzo[d][1,3]dioxol-5-yl)propanoate], the “isoTOP-ABPP ratio, lysine P60520_K46” value ([1]; 50 uM_231_sol_in vitro) is reported as 1.0.

In the case of `COC(=O)NC(=NC(=O)OCC1c2ccccc2-c2ccccc21)n1cccn1` [fragment 49, N-Methoxycarbonyl-N′-9-fluorenylmethoxycarbonyl-pyrazole-1-carboxamidine], the “isoTOP-ABPP ratio, lysine P60520_K46” value ([1]; 100 uM_231_sol_in vitro) is reported as 1.9.

For `O=C(Oc1c(F)c(F)c(F)c(F)c1F)C(c1ccccc1)c1ccccc1` [fragment 20, Pentafluorophenyl 2,2-diphenylacetate], the “R value (DMSO/fragment)” value [1] was 0.9 and the “R value (DMSO/fragment)” value (RTN4 Reticulon-4) was 2.4.

For `O=C(Oc1ccc([N+](=O)[O-])cc1[N+](=O)[O-])c1ccc2ccccc2n1` [fragment 35, 2,4-Dinitrophenyl quinoline-2-carboxylate], the “isoTOP-ABPP ratio (R) at liganded lysine P60520_K46” value [1] was 0.9 and the “isoTOP-ABPP ratio (R) at liganded lysine Q9NQC3_K1104” value (RTN4 Reticulon-4) was 6.0.

`CCn1cc(C(=O)Oc2c(F)c(F)c(F)c(F)c2F)c(=O)c2ccc(C)nc21` [fragment 28, Pentafluorophenyl 1-ethyl-7-methyl-4-oxo-1,4-dihydro-1,8-naphthyridine-3-carboxylate] was tested, and the “isoTOP-ABPP reactivity ratio at lysine Q9NQC3_K1104” value (RTN4 Reticulon-4) was 1.0.

For `O=C(Oc1c(F)c(F)c(F)c(F)c1F)c1cc(C(F)(F)F)cc(C(F)(F)F)c1` [fragment 21, Pentafluorophenyl 3,5-bis(trifluoromethyl)benzoate], the “R value (DMSO/fragment)” value [1] was 0.8 and the “R value (DMSO/fragment)” value (RTN4 Reticulon-4) was 2.5.

With `CC(C)(C)OC(=O)NCCCC(=O)Oc1ccc([N+](=O)[O-])cc1[N+](=O)[O-]` [fragment 41, 2,4-Dinitrophenyl 4-((tert-butoxycarbonyl)amino)butanoate] the “isoTOP-ABPP ratio (R) at liganded lysine P60520_K46” value [1] was 1.0 and the “isoTOP-ABPP ratio (R) at liganded lysine Q9NQC3_K1104” value (RTN4 Reticulon-4) was 4.3.

`O=C(Oc1c(F)c(F)c(F)c(F)c1F)C1CCN(C(=O)OCc2ccccc2)CC1` [fragment 24, 1-Benzyl 4-(pentafluorophenyl) piperidine-1,4-dicarboxylate] was tested, and the “isoTOP-ABPP reactivity ratio at lysine Q9NQC3_K1104” value (RTN4 Reticulon-4) was 2.3.

With `O=C(Oc1c(F)c(F)c(F)c(F)c1F)c1ccc2ccccc2n1` [fragment 25, Pentafluorophenyl quinoline-2-carboxylate] the “isoTOP-ABPP reactivity ratio at lysine P60520_K46” value [1] was 1.2.

In the case of `Cn1cc(CC(=O)Oc2ccc([N+](=O)[O-])cc2[N+](=O)[O-])c2ccccc21` [fragment 32, 2,4-Dinitrophenyl 2-(1-methyl-1H-indol-3-yl)acetate], the “isoTOP-ABPP reactivity ratio at lysine P60520_K46” value [1] is reported as 1.1 and the “isoTOP-ABPP reactivity ratio at lysine Q9NQC3_K1104” value (RTN4 Reticulon-4) is reported as 20.0.

In the case of `COc1cc(CCC(=O)Oc2c(F)c(F)c(F)c(F)c2F)cc(OC)c1OC` [fragment 23, Pentafluorophenyl 3-(3,4,5-trimethoxyphenyl)propanoate], the “R value (DMSO/fragment)” value (RTN4 Reticulon-4) is reported as 3.3.

In the case of `O=C(Oc1ccc([N+](=O)[O-])cc1[N+](=O)[O-])c1ccc(Oc2ccccc2)cc1` [fragment 39, 2,4-Dinitrophenyl 4-phenoxybenzoate], the “isoTOP-ABPP ratio (R) at liganded lysine P60520_K46” value [1] is reported as 0.8.
